Data from US8147838B2, “Peptide” (priority 2005, dated 2012).

What follows are substances tested on PBMCs recovered from TroVax treated patients. Conditions: from HLA-type frequency among responding patients.
Assay type: cell-based, human

Row | Substance | most likely HLA restriction
1 | 36.2: class II 5T4 20 mer peptide (details in Table 12) (LQGLPHIRVFLDNNPWVCDC) [Peptide 36.2] | DQ2, DR7, or DR53
2 | 40.2: class II 5T4 20 mer peptide (details in Table 12) (EVVQGKDRLTCAYPEKMRNR) [Peptide 40.2] | DQ6, DR15, DR51, or DR52
3 | 42.2: class II 5T4 20 mer peptide (details in Table 12) (MRNRVLLELNSADLDCDPIL) [Peptide 42.2] | DQ6, DR51, DQ5, or DR15

Same assay, conditions: positive proliferative responses

Row | Substance | responders with HLA type DQ2 out of all responders | responders with HLA type DR7 out of all responders | responders with HLA type DR53 out of all responders | responders with HLA type DQ6 out of all responders | responders with HLA type DR15 out of all responders | responders with HLA type DR51 out of all responders | responders with HLA type DR52 out of all responders | responders with HLA type DQ5 out of all responders
4 | 36.2: class II 5T4 20 mer peptide (details in Table 12) (LQGLPHIRVFLDNNPWVCDC) [Peptide 36.2] | 3 out of 7 | 3 out of 7 | 3 out of 7 | – | – | – | – | –
5 | 40.2: class II 5T4 20 mer peptide (details in Table 12) (EVVQGKDRLTCAYPEKMRNR) [Peptide 40.2] | – | – | – | 8 out of 12 | 6 out of 12 | 6 out of 12 | 6 out of 12 | –
6 | 42.2: class II 5T4 20 mer peptide (details in Table 12) (MRNRVLLELNSADLDCDPIL) [Peptide 42.2] | – | – | – | 8 out of 12 | 6 out of 12 | 7 out of 12 | – | 6 out of 12

Same assay, conditions: responding patients with HLA type DQ2 / all responding patients; PBMCs from TroVax treated patients

Row | Substance | HLA-type distribution among positive proliferative responses: DQ2
7 | 36.2: class II 5T4 20 mer peptide (details in Table 12) (LQGLPHIRVFLDNNPWVCDC) [Peptide 36.2] | 3/7
8 | 40.2: class II 5T4 20 mer peptide (details in Table 12) (EVVQGKDRLTCAYPEKMRNR) [Peptide 40.2] | 5/12
9 | 42.2: class II 5T4 20 mer peptide (details in Table 12) (MRNRVLLELNSADLDCDPIL) [Peptide 42.2] | 4/12

Same assay, conditions: responding patients with HLA type DQ4 / all responding patients; PBMCs from TroVax treated patients

Row | Substance | HLA-type distribution among positive proliferative responses: DQ4
10 | 36.2: class II 5T4 20 mer peptide (details in Table 12) (LQGLPHIRVFLDNNPWVCDC) [Peptide 36.2] | 0/7
11 | 40.2: class II 5T4 20 mer peptide (details in Table 12) (EVVQGKDRLTCAYPEKMRNR) [Peptide 40.2] | 1/12
12 | 42.2: class II 5T4 20 mer peptide (details in Table 12) (MRNRVLLELNSADLDCDPIL) [Peptide 42.2] | 0/12

Same assay, conditions: responding patients with HLA type DQ5 / all responding patients; PBMCs from TroVax treated patients

Row | Substance | HLA-type distribution among positive proliferative responses: DQ5
13 | 36.2: class II 5T4 20 mer peptide (details in Table 12) (LQGLPHIRVFLDNNPWVCDC) [Peptide 36.2] | 2/7
14 | 40.2: class II 5T4 20 mer peptide (details in Table 12) (EVVQGKDRLTCAYPEKMRNR) [Peptide 40.2] | 2/12
15 | 42.2: class II 5T4 20 mer peptide (details in Table 12) (MRNRVLLELNSADLDCDPIL) [Peptide 42.2] | 6/12

Same assay, conditions: responding patients with HLA type DQ6 / all responding patients; PBMCs from TroVax treated patients

Row | Substance | HLA-type distribution among positive proliferative responses: DQ6
16 | 36.2: class II 5T4 20 mer peptide (details in Table 12) (LQGLPHIRVFLDNNPWVCDC) [Peptide 36.2] | 2/7
17 | 40.2: class II 5T4 20 mer peptide (details in Table 12) (EVVQGKDRLTCAYPEKMRNR) [Peptide 40.2] | 8/12
18 | 42.2: class II 5T4 20 mer peptide (details in Table 12) (MRNRVLLELNSADLDCDPIL) [Peptide 42.2] | 8/12

Same assay, conditions: responding patients with HLA type DQ7 / all responding patients; PBMCs from TroVax treated patients

Row | Substance | HLA-type distribution among positive proliferative responses: DQ7
19 | 36.2: class II 5T4 20 mer peptide (details in Table 12) (LQGLPHIRVFLDNNPWVCDC) [Peptide 36.2] | 2/7
20 | 40.2: class II 5T4 20 mer peptide (details in Table 12) (EVVQGKDRLTCAYPEKMRNR) [Peptide 40.2] | 3/12
21 | 42.2: class II 5T4 20 mer peptide (details in Table 12) (MRNRVLLELNSADLDCDPIL) [Peptide 42.2] | 0/12

Same assay, conditions: responding patients with HLA type DQ8 / all responding patients; PBMCs from TroVax treated patients

Row | Substance | HLA-type distribution among positive proliferative responses: DQ8
22 | 36.2: class II 5T4 20 mer peptide (details in Table 12) (LQGLPHIRVFLDNNPWVCDC) [Peptide 36.2] | 0/7
23 | 40.2: class II 5T4 20 mer peptide (details in Table 12) (EVVQGKDRLTCAYPEKMRNR) [Peptide 40.2] | 0/12
24 | 42.2: class II 5T4 20 mer peptide (details in Table 12) (MRNRVLLELNSADLDCDPIL) [Peptide 42.2] | 1/12

Same assay, conditions: responding patients with HLA type DQ9 / all responding patients; PBMCs from TroVax treated patients

Row | Substance | HLA-type distribution among positive proliferative responses: DQ9
25 | 36.2: class II 5T4 20 mer peptide (details in Table 12) (LQGLPHIRVFLDNNPWVCDC) [Peptide 36.2] | 2/7
26 | 40.2: class II 5T4 20 mer peptide (details in Table 12) (EVVQGKDRLTCAYPEKMRNR) [Peptide 40.2] | 2/12
27 | 42.2: class II 5T4 20 mer peptide (details in Table 12) (MRNRVLLELNSADLDCDPIL) [Peptide 42.2] | 1/12

Same assay, conditions: responding patients with HLA type DR1 / all responding patients; PBMCs from TroVax treated patients

Row | Substance | HLA-type distribution among positive proliferative responses: DR1
28 | 36.2: class II 5T4 20 mer peptide (details in Table 12) (LQGLPHIRVFLDNNPWVCDC) [Peptide 36.2] | 2/7
29 | 40.2: class II 5T4 20 mer peptide (details in Table 12) (EVVQGKDRLTCAYPEKMRNR) [Peptide 40.2] | 1/12
30 | 42.2: class II 5T4 20 mer peptide (details in Table 12) (MRNRVLLELNSADLDCDPIL) [Peptide 42.2] | 4/12

Same assay, conditions: responding patients with HLA type DR4 / all responding patients; PBMCs from TroVax treated patients

Row | Substance | HLA-type distribution among positive proliferative responses: DR4
31 | 36.2: class II 5T4 20 mer peptide (details in Table 12) (LQGLPHIRVFLDNNPWVCDC) [Peptide 36.2] | 1/7
32 | 40.2: class II 5T4 20 mer peptide (details in Table 12) (EVVQGKDRLTCAYPEKMRNR) [Peptide 40.2] | 1/12
33 | 42.2: class II 5T4 20 mer peptide (details in Table 12) (MRNRVLLELNSADLDCDPIL) [Peptide 42.2] | 1/12

Same assay, conditions: responding patients with HLA type DR7 / all responding patients; PBMCs from TroVax treated patients

Row | Substance | HLA-type distribution among positive proliferative responses: DR7
34 | 36.2: class II 5T4 20 mer peptide (details in Table 12) (LQGLPHIRVFLDNNPWVCDC) [Peptide 36.2] | 3/7
35 | 40.2: class II 5T4 20 mer peptide (details in Table 12) (EVVQGKDRLTCAYPEKMRNR) [Peptide 40.2] | 3/12
36 | 42.2: class II 5T4 20 mer peptide (details in Table 12) (MRNRVLLELNSADLDCDPIL) [Peptide 42.2] | 3/12

Same assay, conditions: responding patients with HLA type DR8 / all responding patients; PBMCs from TroVax treated patients

Row | Substance | HLA-type distribution among positive proliferative responses: DR8
37 | 36.2: class II 5T4 20 mer peptide (details in Table 12) (LQGLPHIRVFLDNNPWVCDC) [Peptide 36.2] | 0/7
38 | 40.2: class II 5T4 20 mer peptide (details in Table 12) (EVVQGKDRLTCAYPEKMRNR) [Peptide 40.2] | 1/12
39 | 42.2: class II 5T4 20 mer peptide (details in Table 12) (MRNRVLLELNSADLDCDPIL) [Peptide 42.2] | 0/12

Same assay, conditions: responding patients with HLA type DR9 / all responding patients; PBMCs from TroVax treated patients

Row | Substance | HLA-type distribution among positive proliferative responses: DR9
40 | 36.2: class II 5T4 20 mer peptide (details in Table 12) (LQGLPHIRVFLDNNPWVCDC) [Peptide 36.2] | 1/7
41 | 40.2: class II 5T4 20 mer peptide (details in Table 12) (EVVQGKDRLTCAYPEKMRNR) [Peptide 40.2] | 1/12
42 | 42.2: class II 5T4 20 mer peptide (details in Table 12) (MRNRVLLELNSADLDCDPIL) [Peptide 42.2] | 0/12

Same assay, conditions: responding patients with HLA type DR11 / all responding patients; PBMCs from TroVax treated patients

Row | Substance | HLA-type distribution among positive proliferative responses: DR11
43 | 36.2: class II 5T4 20 mer peptide (details in Table 12) (LQGLPHIRVFLDNNPWVCDC) [Peptide 36.2] | 1/7
44 | 40.2: class II 5T4 20 mer peptide (details in Table 12) (EVVQGKDRLTCAYPEKMRNR) [Peptide 40.2] | 1/12
45 | 42.2: class II 5T4 20 mer peptide (details in Table 12) (MRNRVLLELNSADLDCDPIL) [Peptide 42.2] | 1/12

Same assay, conditions: responding patients with HLA type DR13 / all responding patients; PBMCs from TroVax treated patients

Row | Substance | HLA-type distribution among positive proliferative responses: DR13
46 | 36.2: class II 5T4 20 mer peptide (details in Table 12) (LQGLPHIRVFLDNNPWVCDC) [Peptide 36.2] | 1/7
47 | 40.2: class II 5T4 20 mer peptide (details in Table 12) (EVVQGKDRLTCAYPEKMRNR) [Peptide 40.2] | 3/12
48 | 42.2: class II 5T4 20 mer peptide (details in Table 12) (MRNRVLLELNSADLDCDPIL) [Peptide 42.2] | 2/12

Same assay, conditions: responding patients with HLA type DR15 / all responding patients; PBMCs from TroVax treated patients

Row | Substance | HLA-type distribution among positive proliferative responses: DR15
49 | 36.2: class II 5T4 20 mer peptide (details in Table 12) (LQGLPHIRVFLDNNPWVCDC) [Peptide 36.2] | 2/7
50 | 40.2: class II 5T4 20 mer peptide (details in Table 12) (EVVQGKDRLTCAYPEKMRNR) [Peptide 40.2] | 6/12
51 | 42.2: class II 5T4 20 mer peptide (details in Table 12) (MRNRVLLELNSADLDCDPIL) [Peptide 42.2] | 6/12

Same assay, conditions: responding patients with HLA type DR17 / all responding patients; PBMCs from TroVax treated patients

Row | Substance | HLA-type distribution among positive proliferative responses: DR17
52 | 36.2: class II 5T4 20 mer peptide (details in Table 12) (LQGLPHIRVFLDNNPWVCDC) [Peptide 36.2] | 1/7
53 | 40.2: class II 5T4 20 mer peptide (details in Table 12) (EVVQGKDRLTCAYPEKMRNR) [Peptide 40.2] | 3/12
54 | 42.2: class II 5T4 20 mer peptide (details in Table 12) (MRNRVLLELNSADLDCDPIL) [Peptide 42.2] | 2/12

Same assay, conditions: responding patients with HLA type DR51 / all responding patients; PBMCs from TroVax treated patients

Row | Substance | HLA-type distribution among positive proliferative responses: DR51
55 | 36.2: class II 5T4 20 mer peptide (details in Table 12) (LQGLPHIRVFLDNNPWVCDC) [Peptide 36.2] | 2/7
56 | 40.2: class II 5T4 20 mer peptide (details in Table 12) (EVVQGKDRLTCAYPEKMRNR) [Peptide 40.2] | 6/12
57 | 42.2: class II 5T4 20 mer peptide (details in Table 12) (MRNRVLLELNSADLDCDPIL) [Peptide 42.2] | 7/12

Same assay, conditions: responding patients with HLA type DR52 / all responding patients; PBMCs from TroVax treated patients

Row | Substance | HLA-type distribution among positive proliferative responses: DR52
58 | 36.2: class II 5T4 20 mer peptide (details in Table 12) (LQGLPHIRVFLDNNPWVCDC) [Peptide 36.2] | 2/7
59 | 40.2: class II 5T4 20 mer peptide (details in Table 12) (EVVQGKDRLTCAYPEKMRNR) [Peptide 40.2] | 6/12
60 | 42.2: class II 5T4 20 mer peptide (details in Table 12) (MRNRVLLELNSADLDCDPIL) [Peptide 42.2] | 5/12

Same assay, conditions: responding patients with HLA type DR53 / all responding patients; PBMCs from TroVax treated patients

Row | Substance | HLA-type distribution among positive proliferative responses: DR53
61 | 36.2: class II 5T4 20 mer peptide (details in Table 12) (LQGLPHIRVFLDNNPWVCDC) [Peptide 36.2] | 3/7
62 | 40.2: class II 5T4 20 mer peptide (details in Table 12) (EVVQGKDRLTCAYPEKMRNR) [Peptide 40.2] | 4/12
63 | 42.2: class II 5T4 20 mer peptide (details in Table 12) (MRNRVLLELNSADLDCDPIL) [Peptide 42.2] | 3/12
